Results from patent publication US20260166039A1 (SCHRÖDINGER, INC., priority 2022, published 2026).
Read-outs that look alike come from different tables or passages of the source.

What was measured:
Wee1 kinase domain = biological target: T1, Wee1 kinase domain (Homo sapiens, UniProt P30291); assay: Wee1 Kinase Biochemical Assay (ADP-Glo); conditions: 15 uM ATP
T1 construct: Wee1 kinase domain was purchased from Carna (catalog #05-177); purchased Carna 05-177
Summary of the method: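 Compounds tested against 1 nM Wee1 kinase domain in Tris buffer containing 20 mM MgCl2, BSA and 2 mM DTT, with 15 uM ATP and poly(Lys,Tyr) substrate for 4 h at 25 °C. Luminescent ADP detection gave percent inhibition, normalized to DMSO and saturating inhibitor.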

[1] = system: phosphorylation of Cdc2 Y15 (Wee1 substrate) in A427 cells; assay: Phosphorylated Cdc2 MSD Electrochemiluminescence Assay; format: cell-based
Summary of the method: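 Read-out: percent residual phospho-Cdc2 Y15 relative to DMSO and positive-control Wee1 inhibitor, measured by MSD electrochemiluminescence capture/detection antibody assay in cell lysates. A427 cells received duplicate 3-fold compound dilution series 20 h post-seeding, with 6 h total incubation at 37 °C.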

[2] = class symbols, 1 nM Wee1 enzyme, 4 hours at 25° C.
[3] = Homo sapiens, A-427, class symbols, read-out: A427 pCDC2 MSD IC50

T1 sequence (P30291 299-569 limits assumed): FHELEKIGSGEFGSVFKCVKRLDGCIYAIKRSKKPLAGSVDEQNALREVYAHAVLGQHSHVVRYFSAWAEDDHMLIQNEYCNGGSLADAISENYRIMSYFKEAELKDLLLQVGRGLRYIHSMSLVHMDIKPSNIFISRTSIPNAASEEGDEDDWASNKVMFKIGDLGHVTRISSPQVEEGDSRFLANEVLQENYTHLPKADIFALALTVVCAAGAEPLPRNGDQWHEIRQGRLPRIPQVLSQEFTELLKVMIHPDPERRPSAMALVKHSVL

Structure (SMILES) | IC50 (Wee1 kinase domain; Wee1 kinase domain, ADP-Glo) [nM] | IC50 ([1]; Homo sapiens, A-427, pCDC2 MSD) [nM] | IC50 ([1]; pCDC2 MSD) [nM] | IC50 (Wee1 kinase domain; [2]) [nM] | IC50 [1, 3] [nM]
Cc1cnc(Nc2ncc3c(n2)N(c2cccc(N=S(C)(C)=O)n2)[C@@H]2CC(C)(C)OC[C@]32C)cn1 (single isomer, unassigned) [Example 371] | < 10 | 100 to 1000 | – | – | –
COc1ccc(Nc2ncc3c(n2)N(c2cccc(N=S(C)(C)=O)n2)[C@@H]2CC(C)(C)OC[C@]32C)nn1 (single isomer, unassigned) [Example 372] | < 10 | 100 to 1000 | – | – | –
Cc1ncc(Nc2ncc3c(n2)N(c2cccc(N=S(C)(C)=O)n2)[C@@H]2CC(C)(C)OC[C@]32C)cn1 (single isomer, unassigned) [Example 373] | < 10 | 100 to 1000 | – | – | –
CC1(C)C[C@H]2N(c3cccc(N=S(C)(C)=O)n3)c3nc(Nc4ccn(C(F)F)c(=O)c4)ncc3[C@@]2(C)CO1 (single isomer, unassigned) [Example 374] | < 10 | 100 to 1000 | – | – | –
CC1(C)C[C@H]2N(c3cccc(N=S(C)(C)=O)n3)c3nc(Nc4ccn([C@@H]5CCOC5)c(=O)c4)ncc3[C@@]2(C)CO1 (single isomer, unassigned) [Example 375] | < 10 | 100 to 1000 | – | – | –
CC1(C)C[C@H]2N(c3cccc(N=S(C)(C)=O)n3)c3nc(Nc4ccn([C@H]5CCOC5)c(=O)c4)ncc3[C@@]2(C)CO1 (single isomer, unassigned) [Example 376] | < 10 | 100 to 1000 | – | – | –
CC1(C)C[C@H]2N(c3cccc(N=S(C)(C)=O)n3)c3nc(Nc4ccc(C(F)F)nn4)ncc3[C@@]2(C)CO1 (single isomer, unassigned) [Example 377] | < 10 | 1000 to 10000 | – | – | –
[2H]C([2H])([2H])n1ccc(Nc2ncc3c(n2)N(c2cccc(N=S(C)(C)=O)n2)[C@@H]2CC(C)(C)OC[C@]32C)cc1=O (single isomer, unassigned) [Example 378] | < 10 | 100 to 1000 | – | – | –
CC1(C)C[C@H]2N(c3cccc(N=S(C)(C)=O)n3)c3nc(Nc4ccn5ccnc5c4)ncc3[C@@]2(C)CO1 (single isomer, unassigned) [Example 379] | < 10 | 100 to 1000 | – | – | –
CC1(C)C[C@H]2N(c3cccc(N=S(C)(C)=O)n3)c3nc(Nc4ccn(C5CC5)c(=O)c4)ncc3[C@@]2(C)CO1 (single isomer, unassigned) [Example 380] | < 10 | 100 to 1000 | – | – | –
CNCc1cccc(N2c3nc(Nc4ccn(C5CCOCC5)c(=O)c4)ncc3[C@@]3(C)COC(C)(C)C[C@@H]23)n1 (single isomer, unassigned) [Example 386] | < 10 | 100 to 1000 | – | – | –
CN(C)Cc1cccc(N2c3nc(Nc4ccn(C5CCOCC5)c(=O)c4)ncc3[C@@]3(C)COC(C)(C)C[C@@H]23)n1 (single isomer, unassigned) [Example 387] | < 10 | 1000 to 10000 | – | – | –
CNCc1cccc(N2c3nc(Nc4ccn([C@@H]5CCOC5)c(=O)c4)ncc3[C@@]3(C)COC(C)(C)C[C@@H]23)n1 (single isomer, unassigned) [Example 388] | < 10 | 100 to 1000 | – | – | –
CNCc1cccc(N2c3nc(Nc4ccn([C@H]5CCOC5)c(=O)c4)ncc3[C@@]3(C)COC(C)(C)C[C@@H]23)n1 (single isomer, unassigned) [Example 389] | < 10 | 1000 to 10000 | – | – | –
CN[C@@H](C)c1cccc(N2c3nc(Nc4ccn(C5CCOCC5)c(=O)c4)ncc3[C@@]3(C)COC(C)(C)C[C@@H]23)n1 (single isomer, unassigned) [Example 390] | < 10 | 100 to 1000 | – | – | –
CN[C@H](C)c1cccc(N2c3nc(Nc4ccn(C5CCOCC5)c(=O)c4)ncc3[C@@]3(C)COC(C)(C)C[C@@H]23)n1 (single isomer, unassigned) [Example 391] | < 10 | 100 to 1000 | – | – | –

Structure (SMILES) | IC50 (Wee1 kinase domain; Wee1 kinase domain, ADP-Glo) [nM] | IC50 ([1]; Homo sapiens, A-427, pCDC2 MSD) [nM] | IC50 ([1]; pCDC2 MSD) [nM] | IC50 (Wee1 kinase domain; [2]) [nM] | IC50 [1, 3] [nM]
CN1CCC[C@H]1c1cccc(N2c3nc(Nc4ccn(C5CCOCC5)c(=O)c4)ncc3[C@@]3(C)COC(C)(C)C[C@@H]23)n1 (single isomer, unassigned) [Example 393] | < 10 | 1000 to 10000 | – | – | –
CC1(C)C[C@H]2N(c3cccc([C@H]4CCCN4)n3)c3nc(Nc4ccn(C5CCOCC5)c(=O)c4)ncc3[C@@]2(C)CO1 (single isomer, unassigned) [Example 394] | < 10 | 1000 to 10000 | – | – | –
CN1CCC[C@@H]1c1cccc(N2c3nc(Nc4ccn(C5CCOCC5)c(=O)c4)ncc3[C@@]3(C)COC(C)(C)C[C@@H]23)n1 (single isomer, unassigned) [Example 395] | < 10 | 100 to 1000 | – | – | –
CC1(C)C[C@H]2N(c3cccc(N=S(C)(C)=O)n3)c3nc(NC(=O)[C@@H]4C[C@H]4c4ccccc4)ncc3[C@@]2(C)CO1 (single isomer, unassigned) [Example 396] | < 10 | 100 to 1000 | – | – | –
CC1(C)C[C@H]2N(c3cccc(N=S(C)(C)=O)n3)c3nc(NC(=O)[C@H]4C[C@@H]4c4ccccc4)ncc3[C@@]2(C)CO1 (single isomer, unassigned) [Example 397] | < 10 | – | 100 to 1000 | – | –
CC1(C)C[C@H]2N(c3cccc(N=S(C)(C)=O)n3)c3nc(NC(=O)C4CC4)ncc3[C@@]2(C)CO1 (single isomer, unassigned) [Example 399] | – | – | – | < 10 | 100 to 1000
CC1(C)C[C@H]2N(c3cccc(N=S4(=O)CCCC4)n3)c3nc(NC(=O)C4CC4)ncc3[C@@]2(C)CO1 (single isomer, unassigned) [Example 400] | – | – | – | < 10 | 100 to 1000
CC1(C)C[C@H]2N(c3cccc(N=S(C)(C)=O)n3)c3nc(NC(=O)[C@@H]4C[C@H]4c4cccnc4)ncc3[C@@]2(C)CO1 (single isomer, unassigned) [Example 401] | – | – | – | < 10 | 100 to 1000
CC1(C)C[C@H]2N(c3cccc(N=S(C)(C)=O)n3)c3nc(NC(=O)[C@H]4C[C@@H]4c4cccnc4)ncc3[C@@]2(C)CO1 (single isomer, unassigned) [Example 402] | – | – | – | 10 to 100 | 1000 to 10000
Cn1cc([C@@H]2C[C@H]2C(=O)Nc2ncc3c(n2)N(c2cccc(N=S(C)(C)=O)n2)[C@@H]2CC(C)(C)OC[C@]32C)cn1 (single isomer, unassigned) [Example 403] | – | – | – | < 10 | 100 to 1000
Cn1cc([C@H]2C[C@@H]2C(=O)Nc2ncc3c(n2)N(c2cccc(N=S(C)(C)=O)n2)[C@@H]2CC(C)(C)OC[C@]32C)cn1 (single isomer, unassigned) [Example 406] | – | – | – | < 10 | 100 to 1000
Cn1cc(C(=O)Nc2ncc3c(n2)N(c2cccc(N=S(C)(C)=O)n2)[C@@H]2CC(C)(C)OC[C@]32C)cn1 (single isomer, unassigned) [Example 408] | – | – | – | < 10 | 1000 to 10000
CC1(C)C[C@H]2N(c3cccc(N=S(C)(C)=O)n3)c3nc(NC(=O)[C@H]4C[C@@H]4C4CCOCC4)ncc3[C@@]2(C)CO1 (single isomer, unassigned) [Example 411] | – | – | – | < 10 | 1000 to 10000
CC1(C)C[C@H]2N(c3cccc(N=S(C)(C)=O)n3)c3nc(NC(=O)[C@@H]4C[C@H]4C4CCOCC4)ncc3[C@@]2(C)CO1 (single isomer, unassigned) [Example 412] | – | – | – | < 10 | ≥ 10000
CN1C[C@H]2C[C@@H]1CN2c1ccc(Nc2ncc3c(n2)N(c2cccc(C(C)(C)O)n2)[C@@H]2CC(C)(C)OC[C@]32C)cc1 (single isomer, unassigned) [Example 413] | – | – | – | < 10 | 100 to 1000
